From patent publication US20110207770A1, “PHARMACEUTICAL PRODUCT COMPRISING A MUSCARINIC RECEPTOR ANTAGONIST AND A SECOND ACTIVE INGREDIENT” (ASTRAZENECA AB, priority 2008, published 2011)
Where two headings read alike, the source gives them in different places.

Columns and labels:
[1] = molecular target: T1, Recombinant human M3 receptor (Homo sapiens, UniProt P20309); assay: Muscarinic Receptor Radioligand Binding Assay ([3H]-NMS, SPA)
T1 construct: expressed in transfected cells; host or cells: CHO-K1 cells (membranes prepared from them)
T1 sequence (P20309 whole entry): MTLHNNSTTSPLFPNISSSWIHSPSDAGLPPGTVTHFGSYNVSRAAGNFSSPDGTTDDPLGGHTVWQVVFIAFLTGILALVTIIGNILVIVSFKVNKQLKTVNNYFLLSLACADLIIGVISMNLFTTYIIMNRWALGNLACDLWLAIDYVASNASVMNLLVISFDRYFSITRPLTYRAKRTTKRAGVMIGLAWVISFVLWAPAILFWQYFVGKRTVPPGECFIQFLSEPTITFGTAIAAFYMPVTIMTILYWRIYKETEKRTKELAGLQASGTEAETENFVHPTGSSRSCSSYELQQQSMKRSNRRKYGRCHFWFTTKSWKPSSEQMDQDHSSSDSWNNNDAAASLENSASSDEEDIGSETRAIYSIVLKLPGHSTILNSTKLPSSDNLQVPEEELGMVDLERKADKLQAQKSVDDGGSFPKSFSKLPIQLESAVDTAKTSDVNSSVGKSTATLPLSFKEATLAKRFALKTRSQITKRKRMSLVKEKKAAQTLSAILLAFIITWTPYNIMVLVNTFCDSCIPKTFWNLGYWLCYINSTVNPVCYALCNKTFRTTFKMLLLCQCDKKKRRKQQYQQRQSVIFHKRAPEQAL
Method: The inhibitory effects of compounds of the muscarinic antagonists were determined by a Muscarinic Receptor Radioligand Binding Assay.
Recombinant human M3 receptor was expressed in CHO-K1 cells. Cell membranes were prepared and binding of [3H]-N-methyl scopolamine ([3H]-NMS) and compounds was assessed by a scintillation proximity assay (SPA). The incubation time was 16 hours at ambient temperature in the presence of 1% (v/v) DMSO. The assay was performed in white 96 well clear-bottomed NBS plates (Corning). Prior to the assay, the CHO cell membranes containing M3 receptor were coated onto SPA WGA (Wheat germ agglutinin) beads (GE Healthcare). Non specific binding was determined in the presence of 1 μM Atropine.
Radioactivity was measured on a Microbeta scintillation counter (PerkinElmer) using a 3H protocol with a 2 minutes per well read time. […] Concentration dependent inhibition of [3H]-NMS binding by compounds was expressed as pIC50.

[2] = Dynamic vapour sorption (DVS) analysis of crystalline form; assay type: physicochemical; settings: at 80% RH, 25° C., crystalline material
Method: Dynamic vapour sorption (DVS) analysis was performed on a Surface Measurement systems (SMS) DVS-Intrinsic moisture sorption analyser. The instrument was controlled by SMS Analysis Suite software (DVS-Intrinsic Control v1.0.0.30). Analysis of the data was performed using Microsoft Excel 2007 together DVS Standard Analysis Suite (v6.0.0.7). Sample temperature was maintained at 25° C. and the sample humidity was obtained by mixing streams of wet and dry nitrogen at a total flow rate of 200 mlmin^−1. The relative humidity was measured using a calibrated Rotronic probe (dynamic range 1-100% Relative Humidity (RH)) located close to the sample. The weight change of the sample as a function of % RH was constantly monitored by the microbalance (accuracy ±0.005 mg). Typically a PXRD would be run prior to analysis. 20 mg of sample was then placed in a tared stainless steel mesh basket under ambient conditions. The sample was loaded and unloaded at 40% RH and 25° C. (typical room conditions) and the sample subjected to a graduated DVS regime over 2 cycles using the parameters shown in Table 1.

[3] = Gravimetric Vapour Sorption (GVS) of crystalline forms; assay type: physicochemical; settings: at 80% RH, crystalline material
Method: Gravimetric Vapour Sorption (GVS) profiles were measured using a Surface Measurements Systems Dynamic Vapour Sorption DVS-1 or a DVS Advantage instrument. The solid sample ca. 1-5 mg was placed into a glass vessel and the weight of the sample was recorded during a dual cycle step method (40 to 90 to 0 to 90 to 0% relative humidity (RH), in steps of 10% RH).

[4] = CHO-K1 cell membranes, [3H]-NMS, 16 hours at ambient temperature, 1% DMSO, read-out: Ki in the M3 binding assay

SMILES | Ki [1, 4] [nM] | other results
O[C@](c1ccccc1)(c1cc(C[N+]23CCC(CC2)[C@@H](Oc2ccc(F)cc2)C3)on1)C1CCCCC1 [Example 1, (R)-1-[3-((R)-Cyclohexyl-hydroxy-phenyl-methyl)-isoxazol-5-ylmethyl]-3-(4-fluoro-phenoxy)-1-azonia-bicyclo[2.2.2]octane chloride] | 0.8 | –
O=S(=O)([O-])c1ccccc1.O[C@](c1ccccc1)(c1cc(C[N+]23CCC(CC2)[C@@H](Oc2ccc(F)cc2)C3)on1)C1CCCCC1 [Example 2, (R)-1-[3-((R)-Cyclohexyl-hydroxy-phenyl-methyl)-isoxazol-5-ylmethyl]-3-(4-fluoro-phenoxy)-1-azonia-bicyclo[2.2.2]octane benzenesulfonate] | – | DVS weight increase [2]: 0.2 % w/w
O[C@](c1ccccc1)(c1cc(C[N+]23CCC(CC2)[C@@H](Oc2cccc(F)c2)C3)on1)C1CCCCC1 [Example 3, (R)-1-[3-((R)-Cyclohexyl-hydroxy-phenyl-methyl)-isoxazol-5-ylmethyl]-3-(3-fluoro-phenoxy)-1-azonia-bicyclo[2.2.2]octane chloride] | – | Ki [1]: 0.66 nM
O[C@](c1ccccc1)(c1nnc(C[N+]23CCC(CC2)[C@@H](Oc2ccc(F)cc2)C3)o1)C1CCCCC1 [Example 5, (R)-1-[5-((R)-Cyclohexyl-hydroxy-phenyl-methyl)-[1,3,4]oxadiazol-2-ylmethyl]-3-(4-fluoro-phenoxy)-1-azonia-bicyclo[2.2.2]octane bromide] | 0.7 | –
OC(c1ccccc1)(c1ccccc1)c1cc(C[N+]23CCC(CC2)[C@@H](Sc2cccc(F)c2)C3)on1 [Example 6, (R)-3-(3-Fluoro-phenylsulfanyl)-1-[3-(hydroxy-diphenyl-methyl)-isoxazol-5-ylmethyl]-1-azonia-bicyclo[2.2.2]octane bromide] | 0.15 | –
Cc1ccc(O[C@H]2C[N+]3(Cc4cc(C(O)(c5ccccc5)c5ccccc5)no4)CCC2CC3)cc1F [Example 7, (R)-3-(3-Fluoro-4-methyl-phenoxy)-1-[3-(hydroxy-diphenyl-methyl)-isoxazol-5-ylmethyl]-1-azonia-bicyclo[2.2.2]octane bromide] | 0.4 | –
O[C@](c1ccccc1)(c1cc(C[N+]23CCC(CC2)[C@@H](Oc2cccc(F)c2)C3)on1)C1CCCCC1 [Example 8, (R)-1-[3-((R)-Cyclohexyl-hydroxy-phenyl-methyl)-isoxazol-5-ylmethyl]-3-(3-fluoro-phenoxy)-1-azonia-bicyclo[2.2.2]octane 2-hydroxy-ethanesulfonate] | – | GVS mass increase [3]: 0.15%
